{"source": "patent US20030224036A1", "about": "“Hla class I a2 tumor associated antigen peptides and vaccine compositions” (priority 1999, published 2003)", "origin": "cited, not measured here", "tested_on": "PBMC of cervical cancer patients"}
{"substance": "aKXVAAWTLKAAa-NH2 [PADRE, a=D-alanine, X=cyclohexylalanine]", "values": [{"measurement": "responding patients", "setting": "95% interval 10-65%", "result": 33, "unit": "%"}, {"measurement": "safety in patients", "setting": "recurrent or residual cervical carcinoma", "result": "favorable safety profile"}]}
